Publication PMC5760651, “Peptidomimetic blockade of MYB in acute myeloid leukemia” (Nature Communications, 2018)
Non-standard residues stand in square brackets, D forms with d. Residues, ends and D or L forms follow the SMILES beside them.

What was measured:
Format in all cases: cell-based, human
[1] = test system: MOLM-13, MV-411, ML-2 and HL-60 cells; test: Cell viability of AML cell lines; settings: 6 days, 20 μM TG1, TG2 or TG3, 10 and 20 μM MYBMIM, peptide replacement every 48 h, compared to untreated control
Procedure: (§1) Cells were resuspended and plated at a concentration of 2 × 10^5 cells in 200 μl in 96-well tissue culture plates. Media with peptides was replaced every 48 h. To assess the number of viable cells, cells were resuspended in PBS and 10 µl of suspension was mixed in a 1:1 ratio with 0.4% Trypan Blue (Thermo Fisher) and counted using a hemacytometer (Hausser Scientific, Horsham, PA, USA). To assess viability using an ATP-based assay, cell viability was assessed using the CellTiter-Glo Luminescent Viability assay, according to the manufacturer’s instructions (Promega). Luminescence was recorded using the Infinite M1000Pro plate reader using integration time of 250 ms (Tecan).

MV-411 cells = test: Growth and survival of MV-411 cells with ectopic BCL2 (MIG-BCL2) or empty MIG vector; settings: 20 μM
Procedure: as §1
The MIG-BCL2 vector was packaged using pUMVc and pCMV-VSVG vectors in HEK 293T cells and the FuGENE 6 transfection reagent, according to manufacturer’s instructions (Promega). Virus supernatant was collected at 48 and 72 h post transfection, pooled, filtered and stored at −80 °C. Cells were transduced with virus particles at a multiplicity of infection of 1 by spin inoculation for 90 min at 3500 rpm at 35 °C in the presence of 8 μg/ml hexadimethrine bromide. Two days after transduction, cells were isolated using fluorescence-activated cell sorting (FACSAria III, BD Bioscience, San Jose, CA, USA).

MV-411 and MOLM-13 cells = test: qRT-PCR of BCL2 mRNA expression; settings: 20 μM, 6 h
Procedure: RNA was isolated using Trizol reagent according to the manufacturer’s instructions (Life Technologies). Complementary DNA was synthesized using the SuperScript III First-Strand Synthesis system according to the manufacturer’s instructions (Invitrogen). Quantitative real-time PCR was performed using the KAPA SYBR FAST PCR polymerase with 20 ng template and 200 nM primers, according to the manufacturer’s instructions (Kapa Biosystems, Wilmington, MA, USA). PCR primers are listed in Supplementary Table 4. Ct values were calculated using ROX normalization using the ViiA 7 software (Applied Biosystems).

For CC[C@@H](C)[C@@H](NC(=O)[C@@H](CCCCN)NC(=O)[C@@H](CCC(=O)O)NC(=O)[C@@H](CC(C)C)NC(=O)[C@@H](CCC(=O)O)NC(=O)[C@@H](CC(C)C)NC(=O)[C@@H](CC(C)C)NC(=O)[C@@H](CC(C)C)NC(=O)[C@@H](CCSC)NC(=O)[C@@H](CO)NC(=O)[C@H](NC(=O)[C@@H](CCC(=O)O)NC(=O)[C@@H](CC(N)=O)NC(=O)[C@@H](CCC(=O)O)NC(=O)[C@@H](CC(C)C)NC(=O)[C@@H](CCCCN)NC(C)=O)[C@H](C)O)C(=O)N[C@H](CCCNC(=N)N)C(=O)N[C@H](CCCCN)C(=O)NCC(=O)NCC(=O)N[C@H](CCCNC(=N)N)C(=O)N[C@H](CCCNC(=N)N)C(=O)N[C@H](CCCNC(=N)N)C(=O)N[C@H](CCC(N)=O)C(=O)N[C@H](CCCNC(=N)N)C(=O)N[C@H](CCCNC(=N)N)C(=O)N[C@H](CCCCN)C(=O)N[C@H](CCCCN)C(=O)N[C@H](CCCNC(=N)N)C(=O)NCC(=O)N[C@H](Cc1ccc(O)cc1)C(N)=O [MYBMIM] (Ac-[dK][dL][dE][dN][dE][dT][dS][dM][dL][dL][dL][dE][dL][dE][dK][dI][dR][dK]GG[dR][dR][dR][dQ][dR][dR][dK][dK][dR]G[dY]-NH2), the “Growth of AML cell lines” value [1] was “sustained, logarithmic reduction of growth”, the “Cell growth and survival of mock-treated and MIG empty vector control transduced MV-411 cells” value (MV-411 cells; p = 0.003) was “significant reduction of cell growth and survival” and the “MYBMIM-induced apoptosis in cells ectopically overexpressing BCL2” value (MV-411 cells; MV-411 MIG-BCL2 cells) was “largely, though not completely, rescued”. For the same compound, the BCL2 expression downregulation (MV-411 and MOLM-13 cells) was “more than two-fold”.
